# Measured values as given in ChEMBL document CHEMBL3992552, “Mechanisms of action and structure-activity relationships of cytotoxic flavokawain derivatives” (Bioorg Med Chem, 2017).
# Calls of active or inactive are those of the source. The calls are words filed in the database; no cut-off is given here.
# System: MDA-MB-231
# Assay: Induction of apoptosis in human MDA-MB-231 cells harboring p53 mutant assessed as increase in early apoptosis at 2 times IC50 after 24 hrs by YoPro/propidium iodide/Hoechst staining based assay
# Format: functional, cell-based
# Details: not given
row,Compound,Activity
1,COc1cccc(/C=C/C(=O)c2c(O)cc(OC)cc2OC)c1,Active

# System: NCI-H727
# Assay: Cell cycle arrest in human NCI-H727 cells assessed as accumulation at G1/S phase by Hoechst staining based fluorescence assay
# Format: functional
# Details: not given
row,Compound,Activity
1,COc1cccc(/C=C/C(=O)c2c(O)cc(OC)cc2OC)c1,Active

# System: Huh-7
# Assay: Cytotoxicity against human HuH7 cells assessed as cell viability after 48 hrs by Hoechst 33342 staining based assay
# Format: functional
# Details: Huh-7, 48 h
row,Compound,IC50
1,COc1cccc(/C=C/C(=O)c2c(O)cc(OC)cc2OC)c1,15 µM

# System: Caco-2
# Assay: Cell cycle arrest in human Caco2 cells assessed as mitotic index at 25 uM measured after 48 hrs by Hoechst staining based fluorescence assay (reference value: 3.6)
# Format: functional
# Details: not given
row,Compound,Activity_index
1,COc1cccc(/C=C/C(=O)c2c(O)cc(OC)cc2OC)c1,6.1

# System: Huh-7
# Assay: Cytotoxicity against human HuH7 cells assessed as cell survival at 50 uM after 48 hrs by Hoechst 33342 staining based assay relative to control
# Format: functional
# Details: Huh-7, 48 h, read-out: Survival
row,Compound,viability at 50 µM
1,COc1cccc(/C=C/C(=O)c2c(O)cc(OC)cc2OC)c1,13%

# System: MDA-MB-231
# Assay: Induction of apoptosis in human MDA-MB-231 cells harboring p53 mutant assessed as increase in cleaved caspase3 at 2 times IC50 after 24 hrs by Hoechst staining based assay
# Format: functional, cell-based
# Details: not given
row,Compound,Activity
1,COc1cccc(/C=C/C(=O)c2c(O)cc(OC)cc2OC)c1,Active

# System: HaCaT
# Assay: Cell cycle arrest in human HaCaT cells harboring […] p53 assessed as mitotic index at 25 uM measured after 48 hrs by Hoechst staining based fluorescence assay (reference value: 2.6)
# Format: functional
# Details: not given
row,Compound,Activity_index
1,COc1cccc(/C=C/C(=O)c2c(O)cc(OC)cc2OC)c1,0.1

# System: PC-3
# Assay: Cell cycle arrest in human PC3 cells harboring p53 mutant assessed as mitotic index at 25 uM measured after 48 hrs by Hoechst staining based fluorescence assay (reference value: 2.5)
# Format: functional
# Details: not given
row,Compound,Activity_index
1,COc1cccc(/C=C/C(=O)c2c(O)cc(OC)cc2OC)c1,0.4

# System: HCT-116
# Assay: Cell cycle arrest in human HCT116 cells harboring wild-type p53 assessed as accumulation at S phase at 10 uM measured after 48 hrs by Hoechst/BrdU staining based fluorescence assay (reference value: 68.4%)
# Format: functional
# Details: not given
row,Compound,Activity
1,COc1cccc(/C=C/C(=O)c2c(O)cc(OC)cc2OC)c1,30%

# System: HCT-116
# Assay: Induction of apoptosis in human HCT116 cells harboring wild-type p53 assessed as increase in cleaved caspase3 at 2 times IC50 after 48 hrs by Hoechst staining based assay
# Format: functional, cell-based
# Details: not given
row,Compound,Activity
1,COc1cccc(/C=C/C(=O)c2c(O)cc(OC)cc2OC)c1,Active

# System: HCT-116
# Assay: Induction of apoptosis in human HCT116 cells harboring wild-type p53 assessed as increase in late apoptosis at 2 times IC50 after 48 hrs by YoPro/propidium iodide/Hoechst staining based assay
# Format: functional, cell-based
# Details: not given
row,Compound,Activity
1,COc1cccc(/C=C/C(=O)c2c(O)cc(OC)cc2OC)c1,Active

# System: Caco-2
# Assay: Cell cycle arrest in human Caco2 cells assessed as accumulation at M phase by Hoechst staining based fluorescence assay
# Format: functional
# Details: not given
row,Compound,Activity
1,COc1cccc(/C=C/C(=O)c2c(O)cc(OC)cc2OC)c1,Active

# System: not listed separately
# Assay: Cytotoxicity against human fibroblasts assessed as cell survival at 50 uM after 48 hrs by Hoechst 33342 staining based assay relative to control
# Design: species or system Fibroblast
# Details: read-out: Survival
row,Compound,"viability at 48 h, 50 µM"
1,COc1cccc(/C=C/C(=O)c2c(O)cc(OC)cc2OC)c1,44%

# System: Fibroblast
# Assay: Cytotoxicity against human fibroblasts assessed as cell viability after 48 hrs by Hoechst 33342 staining based assay
# Details: not given
row,Compound,IC50
1,COc1cccc(/C=C/C(=O)c2c(O)cc(OC)cc2OC)c1,> 20 µM

# System: Caco-2
# Assay: Cytotoxicity against human Caco2 cells assessed as cell viability after 48 hrs by Hoechst 33342 staining based assay
# Format: functional
# Details: Caco-2, 48 h
row,Compound,IC50
1,COc1cccc(/C=C/C(=O)c2c(O)cc(OC)cc2OC)c1,11.2 µM

# System: PC-3
# Assay: Induction of apoptosis in human PC3 cells harboring p53 mutant assessed as increase in early apoptosis at 2 times IC50 after 48 hrs by YoPro/propidium iodide/Hoechst staining based assay
# Format: functional, cell-based
# Details: not given
row,Compound,Activity
1,COc1cccc(/C=C/C(=O)c2c(O)cc(OC)cc2OC)c1,Active

# System: NCI-H727
# Assay: Cell cycle arrest in human NCI-H727 cells harboring p53 mutant assessed as mitotic index at 25 uM measured after 48 hrs by Hoechst staining based fluorescence assay (reference value: 1.1)
# Format: functional
# Details: not given
row,Compound,Activity_index
1,COc1cccc(/C=C/C(=O)c2c(O)cc(OC)cc2OC)c1,0.1

# System: PC-3
# Assay: Cytotoxicity against human PC3 cells assessed as cell viability after 48 hrs by Hoechst 33342 staining based assay
# Format: functional
# Details: PC-3, 48 h
row,Compound,IC50
1,COc1cccc(/C=C/C(=O)c2c(O)cc(OC)cc2OC)c1,7.3 µM

# System: HCT-116
# Assay: Induction of apoptosis in human HCT116 cells harboring wild-type p53 assessed as upregulation of cyclinB1 measured after 48 hrs by Hoechst staining based assay
# Format: functional, cell-based
# Details: not given
row,Compound,Activity
1,COc1cccc(/C=C/C(=O)c2c(O)cc(OC)cc2OC)c1,Active

# System: MDA-MB-231
# Assay: Induction of apoptosis in human MDA-MB-231 cells harboring p53 mutant assessed as upregulation of cyclinB1 after 18 hrs by Hoechst staining based assay
# Format: functional, cell-based
# Details: not given
row,Compound,Activity
1,COc1cccc(/C=C/C(=O)c2c(O)cc(OC)cc2OC)c1,Active

# System: not listed separately
# Assay: Selectivity index, ratio of IC50 for human fibroblasts to IC50 for human HaCaT cells
# Details: not given
row,Compound,Ratio IC50
1,COc1cccc(/C=C/C(=O)c2c(O)cc(OC)cc2OC)c1,2.6

# System: PC-3
# Assay: Cell cycle arrest in human PC3 cells harboring p53 mutant assessed as mitotic index at 10 uM measured after 48 hrs by Hoechst staining based fluorescence assay (reference value: 2.5)
# Format: functional
# Details: not given
row,Compound,Activity_index
1,COc1cccc(/C=C/C(=O)c2c(O)cc(OC)cc2OC)c1,4.4

# System: HCT-116
# Assay: Cell cycle arrest in human HCT116 cells assessed as accumulation at G1/S phase by Hoechst staining based fluorescence assay
# Format: functional
# Details: not given
row,Compound,Activity
1,COc1cccc(/C=C/C(=O)c2c(O)cc(OC)cc2OC)c1,Active

# System: HCT-116
# Assay: Induction of apoptosis in human HCT116 cells harboring wild-type p53 assessed as increase in early apoptosis at 2 times IC50 after 48 hrs by YoPro/propidium iodide/Hoechst staining based assay
# Format: functional, cell-based
# Details: not given
row,Compound,Activity
1,COc1cccc(/C=C/C(=O)c2c(O)cc(OC)cc2OC)c1,Active

# System: not listed separately
# Assay: Selectivity index, ratio of IC50 for human fibroblasts to IC50 for human NCI-H727 cells
# Details: not given
row,Compound,Ratio IC50
1,COc1cccc(/C=C/C(=O)c2c(O)cc(OC)cc2OC)c1,1.8

# System: not listed separately
# Assay: Selectivity index, ratio of IC50 for human fibroblasts to IC50 for human PC3 cells
# Details: not given
row,Compound,Ratio IC50
1,COc1cccc(/C=C/C(=O)c2c(O)cc(OC)cc2OC)c1,3.7

# System: Huh-7
# Assay: Cell cycle arrest in human HuH7 cells assessed as accumulation at S phase at 10 uM measured after 48 hrs by Hoechst/BrdU staining based fluorescence assay (reference value: 44%)
# Format: functional
# Details: not given
row,Compound,Activity
1,COc1cccc(/C=C/C(=O)c2c(O)cc(OC)cc2OC)c1,56%

# System: HCT-116
# Assay: Cell cycle arrest in human HCT116 cells harboring wild-type p53 assessed as mitotic index at 10 uM measured after 48 hrs by Hoechst staining based fluorescence assay (reference value: 2.3)
# Format: functional
# Details: not given
row,Compound,Activity_index
1,COc1cccc(/C=C/C(=O)c2c(O)cc(OC)cc2OC)c1,1.2

# System: Caco-2
# Assay: Cell cycle arrest in human Caco2 cells assessed as accumulation at S phase at 10 uM measured after 48 hrs by Hoechst/BrdU staining based fluorescence assay (reference value: […])
# Format: functional
# Details: not given
row,Compound,Activity
1,COc1cccc(/C=C/C(=O)c2c(O)cc(OC)cc2OC)c1,31%

# System: PC-3
# Assay: Cytotoxicity against human PC3 cells assessed as cell survival at 50 uM after 48 hrs by Hoechst 33342 staining based assay relative to control
# Format: functional
# Details: PC-3, 48 h, read-out: Survival
row,Compound,viability at 50 µM
1,COc1cccc(/C=C/C(=O)c2c(O)cc(OC)cc2OC)c1,22%

# System: Caco-2
# Assay: Cell cycle arrest in human Caco2 cells assessed as mitotic index at 10 uM measured after 48 hrs by Hoechst staining based fluorescence assay (reference value: 3.6)
# Format: functional
# Details: not given
row,Compound,Activity_index
1,COc1cccc(/C=C/C(=O)c2c(O)cc(OC)cc2OC)c1,14.4

# System: MDA-MB-231
# Assay: Cell cycle arrest in human MDA-MB-231 cells harboring p53 mutant assessed as mitotic index at 25 uM measured after 48 hrs by Hoechst staining based fluorescence assay (reference value: 2.1)
# Format: functional
# Details: not given
row,Compound,Activity_index
1,COc1cccc(/C=C/C(=O)c2c(O)cc(OC)cc2OC)c1,3.6

# System: NCI-H727
# Assay: Cytotoxicity against human NCI-H727 cells assessed as cell viability after 48 hrs by Hoechst 33342 staining based assay
# Format: functional
# Details: NCI-H727, 48 h
row,Compound,IC50
1,COc1cccc(/C=C/C(=O)c2c(O)cc(OC)cc2OC)c1,14.8 µM

# System: Huh-7
# Assay: Cell cycle arrest in human HuH7 cells assessed as accumulation at S phase at 25 uM measured after 48 hrs by Hoechst/BrdU staining based fluorescence assay (reference value: 44%)
# Format: functional
# Details: not given
row,Compound,Activity
1,COc1cccc(/C=C/C(=O)c2c(O)cc(OC)cc2OC)c1,8.5%

# System: MCF7
# Assay: Induction of apoptosis in human MCF7 cells harboring wild-type p53 assessed as upregulation of cyclinB1 measured after 18 hrs by Hoechst staining based assay
# Format: functional, cell-based
# Details: not given
row,Compound,Activity
1,COc1cccc(/C=C/C(=O)c2c(O)cc(OC)cc2OC)c1,Active

# System: MCF7
# Assay: Induction of apoptosis in human MCF7 cells harboring wild-type p53 assessed as upregulation of p21 measured after 48 hrs by Hoechst staining based fluorescence assay
# Format: functional, cell-based
# Details: not given
row,Compound,Activity
1,COc1cccc(/C=C/C(=O)c2c(O)cc(OC)cc2OC)c1,Active

# System: PC-3
# Assay: Induction of apoptosis in human PC3 cells harboring p53 mutant assessed as increase in cleaved caspase3 at 2 times IC50 after 48 hrs by Hoechst staining based assay
# Format: functional, cell-based
# Details: not given
row,Compound,Activity
1,COc1cccc(/C=C/C(=O)c2c(O)cc(OC)cc2OC)c1,Active

# System: NCI-H727
# Assay: Cell cycle arrest in human NCI-H727 cells harboring p53 mutant assessed as mitotic index at 10 uM measured after 48 hrs by Hoechst staining based fluorescence assay (reference value: 1.1)
# Format: functional
# Details: not given
row,Compound,Activity_index
1,COc1cccc(/C=C/C(=O)c2c(O)cc(OC)cc2OC)c1,1.2
